# Columns and labels:
# Assay type in all cases: cell-based
# [1] = system: Wnt activity (Sp5-Luc reporter, SW480 colon carcinoma cells); assay: Screening assay for Wnt activity: Sp5-Luc reporter gene assay in SW480 colon carcinoma cells; settings: Homo sapiens; for inhibition at 10 µM: SW480, read-out: percent inhibition at 10 μM; for EC50: Sp5-Luc reporter, SW480 cells, overnight incubation
# Description: The screening assay for Wnt activity is described as follows. Reporter cell lines can be generated by stably transducing cancer cell lines (e.g., colon cancer) or primary cells (e.g., IEC-6 intestinal cells) with a lentiviral construct that includes a Wnt-responsive promoter driving expression of the firefly luciferase gene.
# SW480 colon carcinoma cells were transduced with a lentiviral vector expressing luciferase with a human Sp5 promoter consisting of a sequence of eight TCF/LEF binding sites. SW480 cells stably expressing the Sp5-Luc reporter gene and a hygromycin resistance gene were selected by treatment with 150 μg/mL of hygromycin for 7 days. These stably transduced SW480 cells were expanded in cell culture and used for all further screening activities. […] For Sp5-Luc reporter gene assays, the cells were plated at 4,000 cells/well in 384-well plates with medium containing 1% fetal bovine serum and incubated overnight at 37° C. and 5% CO2. Following incubation, 20 μl of BrightGlo luminescence reagent (Promega) was added to each well of the 384-well assay plates. The plates were placed on an orbital shaker for 2 min and then luminescence was quantified using the Envision (Perkin Elmer) plate reader. Readings were normalized to DMSO only treated cells, and normalized activities were utilized for EC50 calculations using the dose-response log (inhibitor) vs. response-variable slope (four parameters) nonlinear regression feature available in GraphPad Prism 5.0 (or Dotmatics).
# SW480 colon cancer cells = assay: Cell viability assay (CellTiter-Blue) in SW480 colon cancer cells; settings: Homo sapiens; for EC50: 96 h, SW480 cell viability, four days; for inhibition at 10 µM: SW480, read-out: percent inhibition at 10 μM
# Method: Representative compounds were screened using the following assay procedure to assess the effect on cell viability as described below.
# Approximately 2×10^3 SW480 colon cancer cells were seeded into each well and allowed to incubate in the presence or absence of compound for four days at 37° C./5% CO2. Eight replicates of DMSO-treated cells served as controls and cells treated with compound were performed in duplicate.
# After incubation, 20 μL of CellTiter-Blue (Promega) was added to each well allowed to incubate for approximately 3 hours. This reagent was a buffered solution which contains resazurin, metabolically active cells were able to reduce rezarurin (blue) into resorufin (pink) which was highly fluorescent. This measured fluorescence was used as a readout for cell viability.
# [2] = system: primary human fibroblasts derived from IPF patients (LL29 cells) treated with TGF-β1; assay: Inhibition of the fibrotic process: αSMA staining in TGF-β1 treated LL29 fibroblasts; settings: Fibroblast; for EC50: 96 h, % αSMA positive LL29 cells, TGF-β1 20 ng/mL, 4 days; for inhibition at 10 µM: read-out: percent inhibition at 10 μM
# Method: Representative compounds were screened using primary human fibroblasts (derived from IPF patients) treated with TGF-β1 to determine their ability to inhibit the fibrotic process.
# LL29 cells are plated at 1,500 cells/well in 80 μL/well F12 medium supplemented with 1% Fetal Bovine Serum. […] Wells treated with TGF-β1 and containing DMSO were used as controls. […] Following incubation for 4 days, SYTOX green nucleic acid stain (Life Technologies [Thermo Fisher Scientific]) was added to the wells at a final concentration of 1 μM and incubated at room temperature for 30 min.
# IL-6 (THP-1 cells) = assay: IL-6 inhibition in LPS-stimulated THP-1 monocytes (HTRF); settings: Homo sapiens; for inhibition at 10 µM: THP-1, read-out: percent inhibition at 10 μM; for EC50: IL-6, THP-1 cells, LPS 500 ng/mL, 22 hours
# Method: Compound Screening: THP-1 cells were cultured in basal media with 1% FBS for 24 hours before the start of the assay. […] THP-1 cells were plated at 5000 cells/well in the 384-well plates and incubated at 37° C. for 2 h. 500 ng/mL of LPS was added after 2 hours and cells were incubated for another 22 hours at 37° C. Plates were spun in a centrifuge for 1 minute at […] and a mixture of anti-IL6 XL665, and anti-IL6 Cryptate diluted in reconstitution buffer (Cisbio Inc.) was added to each well. Following incubation for 3 hrs at room temperature, Homogeneous Time-Resolved Fluorescence (HTRF) was measured using the Envision (Perkin Elmer) at 665 nm and […]. The ratio of fluorescence at 665 nm to 620 nm was used as a readout for IL6 quantification. All samples were processed in duplicate. Readings were normalized to DMSO treated cells and normalized activities were utilized for EC50 calculations using the dose-response log (inhibitor) vs. response-variable slope (four parameters) nonlinear regression feature available in GraphPad Prism 5.0 (or Dotmatics).
EC50 [1] [nM],EC50 (SW480 colon cancer cells) [nM],EC50 (IL-6 (THP-1 cells)) [nM],Compound,inhibition at 10 µM [1] [%],inhibition at 10 µM (SW480 colon cancer cells) [%],EC50 [2] [nM],inhibition at 10 µM [2] [%],inhibition at 10 µM (IL-6 (THP-1 cells)) [%]
78,> 10000,503,"Cn1cc(-c2cc3c(-c4cc5c(-c6cccnc6)nccc5[nH]4)n[nH]c3cn2)cn1 [Compound 556, 5-(1-Methyl-1H-pyrazol-4-yl)-3-(4-(pyridin-3-yl)-1H-pyrrolo[3,2-c]pyridin-2-yl)-1H-pyrazolo[3,4-c]pyridine]",,0,69,,
> 10000,> 10000,> 10000,"Fc1cccc(-c2nccc3[nH]c(-c4n[nH]c5cnc(C6CCNCC6)cc45)cc23)c1 [Compound 505, 3-(4-(3-Fluorophenyl)-1H-pyrrolo[3,2-c]pyridin-2-yl)-5-(piperidin-4-yl)-1H-pyrazolo[3,4-c]pyridine]",28.3,5.2,> 10000,0,16.4
1670,1560,2150,"CS(=O)(=O)NCc1cc(F)cc(-c2nccc3[nH]c(-c4n[nH]c5cnc(-c6ccccn6)cc45)cc23)c1 [Compound 504, N-(3-Fluoro-5-(2-(5-(pyridin-2-yl)-1H-pyrazolo[3,4-c]pyridin-3-yl)-1H-pyrrolo[3,2-c]pyridin-4-yl)benzyl)methanesulfonamide]",,,3390,,
1100,> 10000,2380,"CCCC(=O)Nc1cncc(-c2cc3c(-c4cc5c(-c6ccoc6)nccc5[nH]4)n[nH]c3cn2)c1 [Compound 325, N-(5-(3-(4-(Furan-3-yl)-1H-pyrrolo[3,2-c]pyridin-2-yl)-1H-pyrazolo[3,4-c]pyridin-5-yl)pyridin-3-yl)butyramide]",,31.2,1740,,

# The remaining lines, values behind:
Compound,EC50 [1] [nM],EC50 (SW480 colon cancer cells) [nM],EC50 (IL-6 (THP-1 cells)) [nM],inhibition at 10 µM [1] [%],inhibition at 10 µM (SW480 colon cancer cells) [%],EC50 [2] [nM],inhibition at 10 µM [2] [%],inhibition at 10 µM (IL-6 (THP-1 cells)) [%]
"CN1CCN(c2nccc3[nH]c(-c4n[nH]c5cnc(-c6cncnc6)cc45)cc23)CC1 [Compound 251, 3-(4-(4-Methylpiperazin-1-yl)-1H-pyrrolo[3,2-c]pyridin-2-yl)-5-(pyrimidin-5-yl)-1H-pyrazolo[3,4-c]pyridine]",> 10000,> 10000,> 10000,41.7,0,> 10000,17.6,12.1
"O=C(Nc1cncc(-c2cc3c(-c4cc5c(-c6cccc(F)c6)nccc5[nH]4)n[nH]c3cn2)c1)c1ccccc1 [Compound 11, N-(5-(3-(4-(3-Fluorophenyl)-1H-pyrrolo[3,2-c]pyridin-2-yl)-1H-pyrazolo[3,4-c]pyridin-5-yl)pyridin-3-yl)benzamide]",3820,> 10000,> 10000,,34.7,> 10000,0,26.9
"c1cncc(-c2cc3c(-c4cc5c(N6CCCCC6)nccc5[nH]4)n[nH]c3cn2)c1 [Compound 172, 3-(4-(Piperidin-1-yl)-1H-pyrrolo[3,2-c]pyridin-2-yl)-5-(pyridin-3-yl)-1H-pyrazolo[3,4-c]pyridine]",632,> 10000,> 10000,,10.8,> 10000,0,0
"CC(C)Nc1cncc(-c2cc3c(-c4cc5c(N6CCCCC6)nccc5[nH]4)n[nH]c3cn2)c1 [Compound 180, N-Isopropyl-5-(3-(4-(piperidin-1-yl)-1H-pyrrolo[3,2-c]pyridin-2-yl)-1H-pyrazolo[3,4-c]pyridin-5-yl)pyridin-3-amine]",2450,4160,3390,,,2600,,
"O=C(Cc1ccccc1)Nc1cncc(-c2cc3c(-c4cc5c(-c6ccccc6F)nccc5[nH]4)n[nH]c3cn2)c1 [Compound 66, N-(5-(3-(4-(2-Fluorophenyl)-1H-pyrrolo[3,2-c]pyridin-2-yl)-1H-pyrazolo[3,4-c]pyridin-5-yl)pyridin-3-yl)-2-phenylacetamide]",2000,1850,3250,,,3310,,

# Source: patent publication US10206908B2, “3-(1H-pyrrolo[3,2-C]pyridin-2-YL)-1H-pyrazolo[3,4-C]pyridines and therapeutic uses thereof” (Samumed, LLC, priority 2015, dated 2019)
